# Source: PMC2827632 (Biochemistry, 2010)
# Legend:
# Mtb Lpd A181V = Mtb Lpd A181V (Mycobacterium tuberculosis, UniProt P9WHH9, A181V); conditions: 100 µM
# Mtb Lpd R347S = Mtb Lpd R347S (Mycobacterium tuberculosis, UniProt P9WHH9, R347S)
structure (smiles),measurement,setting,value
"COc1ccc(C(=O)N2CCC3(CC2)C(=O)N(CC(=O)NCCc2ccc(Cl)cc2Cl)CN3c2ccccc2)c(OC)c1 [compound 5, N-(2,4-dichlorophenethyl)-2-(8-(2,4-dimethoxybenzoyl)-4-oxo-1-phenyl-1,3,8-triazaspiro[4.5]decan-3-yl)acetamide]",Inhibition of A181V Mtb Lpd,Mtb Lpd A181V,10%
same,"Decrease in potency, R347S vs wild-type",Mtb Lpd R347S,more than 100 fold
